Patent US6458351B2, “Naturally extracted and synthetic hypoglycemic or hypolipidemic compositions” (priority 1999, dated 2002)

Assays:
[1] = system: streptozoatocin diabetic rats; test: Effect on insulin activity / blood glucose in streptozotocin diabetic rats; format: in vivo; settings: single dose; insulin at marginal dose 0.005-0.025 mg/Kg body weight
Experimental: Sprague Dawly male rats weighing 120-130 g were injected subcutanously with a single dose of streptozotocin (60 mg/kg body weight) in 0.5 ml citrate buffer, 0.05 M pH 4.5. Plasma glucose concentrations were measured seven days later using commercial glucometer. Animals with blood glucose higher than 250 mg/dl were chosen for the subsequent test with fractions purified from yeast extract or the Saltbush, as described in section 5.1 and 5.2.
When a marginal dose of insulin (0.005-0.025 mg/Kg body weight ) was injected into streptozoatocin diabetic rats a decrease of 10%-15% in blood glucose was observed after the injection. A single dose of active chromium fraction extraction from yeast decreased blood glucose by 15%-20%. A combination of both insulin and chromium containing natural compound from yeast created much higher reduction in blood glucose of 40%-45% reduction.

[2] = system: yeast cells (Yeast strain Carlsbergensis); test: Yeast fermentation assay (rate of CO2 production under anaerobic conditions); format: cell-based, S. carlsbergensis; settings: synthetic chromium complexes; for Activity in yeast fermentation assay, CO2 production (in words): different concentrations
Experimental: The cells were kept on a solid chromium depleted medium that contained 6.7 g yeast nitrogen base, 20 g of glucose, and 18 g agar per liter. Cells were grown over night in a liquid medium without Cr. Yeast cells were harvested during stationary phase, washed twice and resuspended in 0.1M phosphate buffer pH 5.7. An aliquot of 3×10^8 cells/ml was anaerobically incubated at 30° C. in Warburg vessels in the presence of 10 mM glucose and the examined fraction of GTF extracted from yeast. Enhancement of fermentation rate by natural or synthetic chromium compounds was measured.
Yeast cells were grown over night in liquid medium without Cr. Yeast cells were harvested during stationary phase, washed twice and resuspended in 0.1M phosphate buffer pH 5.7. An aliquot of 3×10^7 cells/ml was anaerobically incubated at 30° C. in Warburg vessels in the presence of 10 mM glucose and the examined fractions extracted from Saltbush.
The activity of the synthetic chromium complexes was examined in the yeast fermentation assay as described above. All the complexes were tested by adding samples of the subject complex, and measuring the rate of CO2 production.

Compound	Decrease in blood glucose [1]	Activity in yeast fermentation assay, CO2 production (in words) [2]	Inhibition of yeast fermentation at high concentrations (in words) [2]	Activity in yeast fermentation assay, CO2 production (in words) ([2]; listed as Chromium axcorbate)
insulin	10%-15%			
CC(=O)N[C@@H](CS)C(=O)O.[Cr] [Cr-NAC, Chromium N-Acetyl Cysteine]		increases the production of CO2	partial inhibition	
Chromium Ascorbate [Cr-Asc]		most active	without any inhibition	enhances the production of CO2
N[C@@H](CCC(=O)N[C@@H](CS)C(=O)NCC(=O)O)C(=O)O.[Cr] [Cr-GSH, Chromium-Glutathione]		increases the production of CO2	partial inhibition	
